# Patent US7279502B2, “Polyamine analog conjugates and quinone conjugates as therapies for cancers and prostate diseases” (Cellgate, Inc., priority 1999, dated 2007)
# Like-named read-outs stand apart in the source and are kept apart here.
# Assays:
# Format in all cases: cell-based
# [1] = test system: human prostate adenocarcinoma cell line PC-3; assay: MTT assay, quinones, PC-3; conditions: read-out: ID50 PC-3
# Experimental: (§1) Cell Culture: The human lung adenocarcinoma cell line, A549, and human prostatic cancer cell line, DUPRO, were a gift from Dr. M. Eileen Dolan, University of Chicago, Department of Medicine. A549 was grown in Ham's F-12K medium (Fisher Scientific, Itasca, Ill.) supplemented with 10% fetal bovine serum and 2 mM L-glutamine. DUPRO was grown in RPMI-1640 supplemented with 10% fetal bovine serum. The human colon carcinoma cell line, HT29, and the human breast carcinoma cell line, MCF7, were obtained from the American Type Culture Collection, Rockville, Md. HT29 cells were grown in McCoy's 5A medium (Gibco, BRL, Gaithersburg, Md.) supplemented with 10% fetal bovine serum. MCF7 cells were grown in Richter's Improved Modified Eagle's medium supplemented with 10% fetal bovine serum and 2.2 g/L sodium bicarbonate. The human prostate adenocarcinoma cell lines, LNCAP, PC-3 and DU145, were gifts from Dr. George Wilding, University of Wisconsin Comprehensive Cancer Center and the Department of Medicine, and were grown in Dulbecco's Modified Eagle's medium supplemented with a 5% fetal bovine serum. The malignant glioma cell line, U251MG NCI was obtained from the brain tumor tissue bank at the University of California, San Francisco Department of Neurosurgery, and was grown in Dulbecco's Modified Eagle's medium supplemented wth 10% fetal bovine serum. DUPRO, A549 and MCF7 cells were grown in 100 units/mL penicillin and 100 μg/mL streptomycin. HT29 and U251MG NCI cells were grown in 50 μg/mL gentamycin. LNCAP, PC-3 and DU145 cells were maintained in 1% antibiotic antimycotic solution (Sigma, St. Louis, Mo.). All cell cultures were maintained at 37° C. in 5% CO2/95% humidified air.
# (§2) MTT assay. Exponentially growing monolayer cells were plated in 96 well plates at a density of 500 cells/well and allowed to grow for 24 h. Serially diluted drug solutions were added such that the final drug concentrations in the treatment media were between 0 and 35 μM. Cells were incubated with drug at either 4 hr or 72 hr. After 4 hr and 72 hr treatment, drugs were removed, fresh media (without) drug (100 uL) was added and cells were incubated for 6 days. After six days, 25 μL of a Dulbecco's phosphate-buffered saline solution containing 5 mg/mL of MTT (Thiazolyl blue) (Sigma) was added to each well and incubated for 4 h at 37° C. Then 100 μL of lysis buffer (20% sodium dodecyl sulfate, 50% N,N-dimethylformamide and 0.8% acetic acid, pH 4.7) was added to each well and incubated for an additional 22 h. A microplate reader (E max, Molecular Devices, Sunnyvale, Calif.) set at 570 nm was used to determine the optical density. Results were plotted as a ratio of the optical density in drug treated wells to the optical density in wells treated with vehicle alone. Plotting and estimation of ID50 values were accomplished with manufacturer supplied software. The data is presented below in Tables 3, 4, 5 and 6.
# [2] = test system: human breast carcinoma cell line, MCF7; assay: MTT assay, quinones, MCF7; conditions: Table 4, treatment time not given in cell, read-out: ID50 Breast MCF7
# Experimental: as §1, §2
# [3] = test system: human prostate cancer cells DU145; assay: MTT assay, polyamine analogs, DU145; conditions: Homo sapiens; for IC50: DU-145, 144 h, read-out: concentration needed for 50% growth inhibition (ID50) DU-145, Table 2, MTT six days after drug treatment; for EC50: DU-145, survival of cultured DU145 cells, figure legends, read-out: ED50 (the source's name)
# Experimental: (§3) Human breast cancer cell line MCF7 was grown in Richter's Improved Modified Eagle's Medium supplemented with 10% fetal bovine serum (FBS) and 2.2 g/L sodium bicarbonate. Human brain tumor cell line U251 MG-NCI was grown in Dulbecco's Modified Eagle's Medium supplemented with 10% FBS. Human lung cancer cell line A549 was grown in Ham's F-12K medium (Cellgro, Mediatech, Inc., VA), supplemented with 10% FBS and 2 mM L-glutamine. Human colon cancer cell line HT29 was cultured in McCoy's 5A medium (Gibco, BRL, Gaithersburg, Md.) supplemented with 10% FBS. Human prostate cancer cell lines PC-3, LNCAP and DuPro were grown in RPMI 1640 Medium (Cellgro, Mediatech, Inc., VA) supplemented with 10% FBS. Another human prostate cancer cell line DU145 was grown in Dulbecco's Modified Eagle's Medium (Gibco, BRL, Gaithersburg, Md.) supplemented with 5% FBS. The A549, MCF7, PC3, LNCAP and DuPro cell lines were cultured in 100 units/mL penicillin and 100 μg/mL streptomycin. HT29 and U251MG cell lines were grown in 50 μg/mL gentamycin (Gibco, BRL, Gaithersburg, Md.). DU145 cell line was maintained in 1% antibitic-antimycotic solution (Sigma, St. Louis, Mo.). The cell cultures were maintained at 37° C. in 5% CO2/95% humidified air. DuPro cells were obtained from M. Eileen Dolan, University of Chicago. All other cells are available from the American Type Culture Collection, Rockville, Md.
# (§4) A conventional MTT assay was used to evaluate percent cell survival. Exponentially growing monolayer cells were plated in 96-well plates at a density of 500 cells per well and allowed to grow for 24 hours. Serial dilutions of the drugs were added to the wells. Six days after drug treatment, 25 μl of MTT solution (5 mg/ml) was added to each well and incubated for 4 hours at 37° C. Then 100 μl of lysis buffer (20% sodium dodecyl sulfate, 50% DMF, and 0.8% acetic acid, pH 4.7) was added to each well and incubated for an additional 22 hours. A microplate reader (“EMAX”-brand, Molecular Devices, Sunnyvale, Calif.) set at 570 nm was used to determine the optical density of the cultures. Results are expressed as a ratio of the optical density in drug-treated wells to the optical density in wells treated with vehicle only.
# [4] = test system: human brain tumor cells U251 MG NCI; assay: MTT assay, polyamine analogs, U251 MG NCI; conditions: for IC50: U-251, 144 h, read-out: concentration needed for 50% growth inhibition (ID50) U251MG, Table 2, MTT six days after drug treatment; for EC50: U-251, survival of cultured U251 MG NCI cells, figure legends, read-out: ED50 (the source's name)
# Experimental: as §3, §4
# [5] = test system: human breast cancer cells MCF7; assay: MTT assay, polyamine analogs, MCF7; conditions: for IC50: MCF7, 144 h, read-out: concentration needed for 50% growth inhibition (ID50) MCF7, Table 2, MTT six days after drug treatment; for EC50: MCF7, survival of cultured MCF7 cells, figure legends, read-out: ED50 (the source's name)
# Experimental: (§5) As shown in Table 2 and FIGS. 1-32, several novel conformationally restricted polyamine analogs were tested for anti-proliferative properties against cancer cells.
# as §3, §4
# [6] = test system: human lung cancer cells A549; assay: MTT assay, polyamine analogs, A549; conditions: for EC50: A549, survival of cultured A549 cells, figure legends, read-out: ED50 (the source's name)
# Experimental: as §5, §3, §4
# [7] = test system: human colon cancer cells HT29; assay: MTT assay, polyamine analogs, HT29; conditions: for IC50: HT-29, 144 h, read-out: concentration needed for 50% growth inhibition (ID50) HT-29, Table 2, MTT six days after drug treatment; for EC50: HT-29, survival of cultured HT29 cells, figure legends, read-out: ED50 (the source's name)
# Experimental: as §5, §3, §4
# [8] = test system: human prostate cancer cells PC3; assay: MTT assay, polyamine analogs, PC3; conditions: for EC50: PC-3, survival of cultured PC3 cells, figure legends, read-out: ED50 (the source's name)
# Experimental: as §3, §4
# [9] = test system: human prostate cancer cells DUPRO; assay: MTT assay, polyamine analogs, DUPRO; conditions: Homo sapiens, DuPro; for IC50: 144 h, read-out: concentration needed for 50% growth inhibition (ID50) DUPRO, Table 2, MTT six days after drug treatment; for EC50: survival of cultured DUPRO cells, figure legends, read-out: ED50 (the source's name)
# Experimental: as §3, §4
# [10] = Table 3, treatment time not given in cell
# [11] = Homo sapiens, A549, 144 h, read-out: concentration needed for 50% growth inhibition (ID50) A549, Table 2, MTT six days after drug treatment
# [12] = read-out: concentration needed for 50% growth inhibition (ID50) A549, Table 2, MTT six days after drug treatment
compound,measurement,setting,value
"O=C1C=C(OCCCCCNc2c3ccccc3nc3ccccc23)c2ccccc2C1=O [SL-11059, Acridine-quinone]",IC50,[1]; [10],4300 nM
N#Cc1ccc(OCCCCCCOC2=CC(=O)C(=O)c3ccccc32)cc1 [SL-11062],IC50,[1]; [10],1710 nM
CN1CCN(c2ccc3nc(-c4ccc5nc(-c6ccc(O)cc6)[nH]c5c4)[nH]c3c2)CC1 [SL-11063],IC50,"[1]; Table 5, non-quinone structure",> 31200 nM
O=C1C=C(OCCCCCCOC2=CC(=O)c3ccccc3C2=O)c2ccccc2C1=O [SL-11065],IC50,[1]; [10],1400 nM
O=C1C=C(OCCCCCCOc2ccc(OC3OC(CO)C(O)C(O)C3O)cc2)c2ccccc2C1=O (stereo not drawn) [SL-11066],IC50,[1]; [10],> 31200 nM
O=C1C=C(OCCCCCCOc2ccccc2)c2ccccc2C1=O [SL-11068],IC50,[1]; [10],1500 nM
CN(C)c1cccc(OC(=O)CCCCOC2=CC(=O)C(=O)c3ccccc32)c1 [SL-11074],IC50,[1]; [10],4600 nM
NCCCCCC(=O)OCCCCCCOC1=CC(=O)C(=O)c2ccccc21 [SL-11075],IC50,[1]; [10],2000 nM
CCNC(=O)CCNC(=O)CCCNC(=O)CCNC(=O)CCCCOC1=CC(=O)C(=O)c2ccccc21 [SL-11085],IC50,[1]; [10],> 31200 nM
CCCCN(CC1=CC(=O)C(=O)c2ccccc21)C(C)=O [SL-11087],IC50,[1]; [10],2400 nM
same,IC50,[2],4000 nM
CCCCN(CC1=CC(=O)C(=O)c2ccccc21)C(=O)C(F)(F)F [SL-11088],IC50,[1]; [10],> 31200 nM
same,IC50,[2],> 31200 nM
CCCCN/C=C1\C=C(O)C(=O)c2ccccc21 [SL-11089],IC50,[1]; [10],11000 nM
same,IC50,[2],> 31200 nM
CCNCCCNCc1ccccc1CNCCCNCC [SL-11094],IC50,[3],12600 nM
same,EC50,[3],15400 nM
same,IC50,[4],> 31200 nM
same,EC50,[4],> 31200 nM
same,IC50,[5],> 31200 nM
same,EC50,[5],> 31200 nM
same,IC50,[6]; [11],> 31200 nM
same,EC50,[6]; Homo sapiens,> 31200 nM
same,IC50,[7],28800 nM
same,EC50,[7],28800 nM
same,EC50,[8],> 31200 nM
CCCCN(CC1=CC(=O)C(=O)c2ccccc21)C(=O)CCC(=O)N1CCOCC1 [SL-11096],IC50,[1]; [10],3600 nM
same,IC50,[2],3800 nM
CCNCCCCNCC1CC1CNCCCCNCC (stereo not drawn) [SL-11098],IC50,[9],80 nM
same,IC50,[3],18 nM
same,IC50,[4],100 nM
same,IC50,[6]; [11],510 nM
same,IC50,[7],400 nM
CCNCCCCNCC1CCC1CNCCCCNCC (stereo not drawn) [SL-11099],IC50,[3],14 nM
same,EC50,[3],14 nM
same,IC50,[4],110 nM
same,EC50,[4],110 nM
same,IC50,[5],26300 nM
same,EC50,[5],26300 nM
same,EC50,[6]; Homo sapiens,510 nM
same,IC50,[6]; [12],650 nM
same,IC50,[7],1000 nM
same,EC50,[7],1000 nM
same,EC50,[8],2500 nM
CCNCCCCNCC1CCC1CNCCCCNCC (stereo not drawn) [SL-11100],IC50,[6]; [12],2200 nM
CCNCCCCNC/C=C\CNCCCCNCC [SL-11102],IC50,[9],150 nM
same,EC50,[9],150 nM
same,IC50,[3],27 nM
same,EC50,[3],30 nM
same,IC50,[4],150 nM
same,EC50,[4],150 nM
same,IC50,[5],> 31200 nM
same,EC50,[5],> 31200 nM
same,IC50,[6]; [11],12400 nM
same,EC50,[6]; Homo sapiens,150 nM
same,IC50,[7],730 nM
same,EC50,[7],730 nM
same,EC50,[8],> 31200 nM
CCNCCCCNCc1ccccc1CNCCCCNCC [SL-11104],IC50,[3],9400 nM
same,EC50,[3],9400 nM
same,IC50,[4],14700 nM
same,EC50,[4],14700 nM
same,IC50,[5],> 31200 nM
same,EC50,[5],> 31200 nM
same,IC50,[6]; [11],430 nM
same,EC50,[6]; Homo sapiens,> 31200 nM
same,IC50,[7],25800 nM
same,EC50,[7],25800 nM
same,EC50,[8],> 31200 nM
CCNCCCNCC1CCCC1NCCCNCC (stereo not drawn) [SL-11105],IC50,[9],> 31200 nM
same,EC50,[9],430 nM
same,IC50,[3],1600 nM
same,EC50,[3],1600 nM
same,IC50,[4],25900 nM
same,EC50,[4],25900 nM
same,IC50,[5],> 31200 nM
same,EC50,[5],> 31200 nM
same,IC50,[6]; [11],> 31200 nM
same,EC50,[6]; Homo sapiens,430 nM
same,IC50,[7],25200 nM
same,EC50,[7],25200 nM
same,IC50,"[8]; 144 h, read-out: concentration needed for 50% growth inhibition (ID50) PC-3, Table 2, MTT six days after drug treatment",> 31200 nM
same,EC50,[8],> 31200 nM
CCNC/C=C\CNC/C=C\CNCCCCNCC [SL-11119],IC50,[9],440 nM
same,EC50,[9],440 nM
same,IC50,[3],80 nM
same,EC50,[3],80 nM
same,IC50,[7],970 nM
same,EC50,[7],970 nM
same,EC50,[8],> 31200 nM
